Here are results for 23 molecules from ChEMBL document CHEMBL2311386, “Alkyl substituted 2'-benzoylpyridine thiosemicarbazone chelators with potent and selective anti-neoplastic activity: novel ligands that limit methemoglobin formation” (J Med Chem, 2013).

Data set [1] concerns SK-N-MC. As to the kind of experiment: Cytotoxicity against human SK-N-MC cells assessed as growth inhibition after 72 hrs by MTT assay. Type of data set: functional, cell-based. On the technique in general: Tetrazolium dyes change colour on reduction, which living cells bring about.
Data set [2] in a line: Induction of ascorbate oxidation in citrate buffer in presence of 10 uM Fe3+ at 1 to 60 uM. The class given is physicochemical.
Data set [3] is described as follows: Therapeutic index, ratio of IC50 for human MRC5 cells to IC50 for human SK-N-MC cells. The class given is cell-based. Particulars: MRC5 cells and SK-N-MC cells, read-out: Ratio IC50; call rule not given here.
Another data set deals with MRC5. As to the kind of experiment: Cytotoxicity against human MRC5 cells assessed as growth inhibition after 72 hrs by MTT assay. Type of data set: cell-based. Particulars: MRC5, 72 h.
The nature of data set [4]: Toxicity in intact human RBC assessed as methemoglobin formation at 25 uM after 3 hrs relative to untreated control. The note with it: erythrocyte. Type of data set: cell-based.
The nature of data set [5]: Toxicity in intact human RBC assessed as methemoglobin formation using Fe(compound)2 complex at 25 uM after 3 hrs relative to untreated control. The class given is cell-based. Particulars: erythrocyte.
A short description of data set [6]: Toxicity in human RBC lysates assessed as methemoglobin formation using Fe(compound)2 complex at 25 uM after 3 hrs relative to control. More on the design: species or system Lysate. Particulars: erythrocyte.
The nature of data set [7]: Toxicity in human RBC lysates assessed as methemoglobin formation at 25 uM after 3 hrs relative to control. The note with it: erythrocyte. Details: species or system Lysate.
The test system of data set [8] is SK-N-MC. As to the kind of experiment: Reduction of cellular 59Fe uptake from 59Fe-Transferrin in human SK-N-MC cells assessed as 59Fe level prelabeled with 59Fe2-Tf at 25 uM after 3 hrs relative to control. Details: scale not given: the % may be the effect or the level left. The class given is functional.
Data set [9] in a line: Toxicity in human RBC lysates assessed as methemoglobin formation at 25 uM after 3 hrs (reference value: 1.2 +/- 8%). Type of data set: cell-based, Lysate. The note with it: erythrocyte.
A short description of data set [10]: Toxicity in intact human RBC assessed as methemoglobin formation using Fe(compound)2 complex at 25 uM after 3 hrs relative to free ligand. The note with it: erythrocyte.

For `CN(C)C(=S)N/N=C(\c1ccccc1)c1ccccn1`, the IC50 (commonly the concentration that gives 50% inhibition) with SK-N-MC [1] is 5 nM. For the same molecule, the Activity result in [2] is on record as “Not Active”. Moreover, the selectivity ratio in data set [3] stood at 202.
As to `NC(=S)N/N=C(\c1ccccc1)c1ccccn1`, the IC50 in the data set with MRC5 was more than 12500 nM; in the data set with SK-N-MC [1], 3800 nM. The Activity result was “Toxic” in data set [4]; “Toxic” in [5]; “Non-toxic” in [6]; “Non-toxic” in data set [7]; “Active” in data set [2]. For the same molecule, the selectivity ratio in [3] was more than 3.
Turning to `CNC(=S)N/N=C(\c1ccc(C(C)(C)C)cc1)c1ccccn1`, the figures for the IC50 in the data set with MRC5 and in the data set with SK-N-MC [1] were 2460 nM and 15 nM, respectively. Further, the Activity result in data set [4], in data set [5], in [6] and in data set [7] was “Non-toxic” throughout. Besides, the selectivity ratio in data set [3] turned out to be 164.
Take `CC(C)(C)c1ccc(/C(=N\NC(=S)Nc2ccccc2)c2ccccn2)cc1`: the values for the IC50 with MRC5 and in the data set with SK-N-MC [1] were 1890 nM and 109 nM, respectively. The Activity entry in [4], in [5], in data set [6] and in data set [7] was “Non-toxic” in each case. Besides, in data set [3], the selectivity ratio was found to be 17.
As for `COc1ccc(/C(=N\NC(=S)Nc2ccccc2)c2ccccn2)cc1`, the values for the IC50 with MRC5 and in the data set on SK-N-MC [1] were 864 nM and 19 nM, respectively. Also, the Activity entry in [4], in data set [5], in [6] and in data set [7] was “Non-toxic” each time. The selectivity ratio in data set [3] amounted to 45.
On to `Cc1ccc(/C(=N\NC(=S)Nc2ccccc2)c2ccccn2)cc1`, for which the IC50 with MRC5 was 1520 nM; in the data set with SK-N-MC [1], 24 nM. Also, the Activity entry in [4], in data set [5], in data set [6] and in data set [7] was “Non-toxic” each time. Further, in data set [3], the selectivity ratio is 63.
Regarding `CN(C)C(=S)N/N=C(\c1ccc(C(C)(C)C)cc1)c1ccccn1`, the IC50 in the data set with MRC5 was 1070 nM; with SK-N-MC [1] it was 72 nM. The Activity entry in data set [4] is given as “Non-toxic”; in data set [5], “Non-toxic”; in data set [2], “Not Active”. Also, the selectivity ratio in [3] came out at 15.
`COc1ccc(/C(=N\NC(=S)N(C)C)c2ccccn2)cc1`: the results for the IC50 with MRC5 and with SK-N-MC [1] were 1140 nM and 17 nM, respectively. Further, the Activity result is “Non-toxic” in [4], “Non-toxic” in data set [5], “Not Active” in [2] and 8% in the data set on SK-N-MC [8]. Besides, the selectivity ratio in data set [3] was 66.
In the case of `Cc1ccc(/C(=N\NC(=S)N(C)C)c2ccccn2)cc1`, the values for the IC50 with MRC5 and in the data set on SK-N-MC [1] were 921 nM and 7 nM, respectively. For the same molecule, the Activity entry was “Non-toxic” in [4], “Non-toxic” in data set [5], “Not Active” in data set [2] and 8% in the data set on SK-N-MC [8]. Also, in data set [3], the selectivity ratio worked out at 131.
`CCNC(=S)N/N=C(\c1ccc(OC)cc1)c1ccccn1`: the 50% inhibitory concentration (IC50) was found to be 1650 nM with MRC5 and 16 nM with SK-N-MC [1]. The Activity result in data set [4] is given as “Non-toxic”; in data set [5] it was “Non-toxic”; in [6], “Non-toxic”; in data set [7] it was “Non-toxic”; in the data set with SK-N-MC [8], 8%. Besides, in data set [3], the selectivity ratio is 102.
Take `CCNC(=S)N/N=C(\c1ccc(C(C)(C)C)cc1)c1ccccn1`: the IC50 in the data set with MRC5 is 2940 nM; in the data set on SK-N-MC [1] it was 20 nM. Besides, the Activity result in data set [4], in [5], in [6] and in data set [7] was “Non-toxic” throughout. The selectivity ratio in data set [3] worked out at 147.
For `CCNC(=S)N/N=C(\c1ccc(C)cc1)c1ccccn1`, the IC50 in the data set with MRC5 turned out to be 2140 nM; in the data set with SK-N-MC [1], 13 nM. Moreover, the Activity entry in data set [4] is “Non-toxic”; in data set [5], “Non-toxic”; in [6], “Non-toxic”; in data set [7], “Non-toxic”; in the data set with SK-N-MC [8], 8%. In [3], the selectivity ratio came out at 164.
Consider `CNC(=S)N/N=C(\c1ccc(OC)cc1)c1ccccn1`, for which the IC50 stood at 2030 nM with MRC5 and 22 nM with SK-N-MC [1]. Besides, the Activity result in data set [4] is on record as “Non-toxic”; in data set [5], “Non-toxic”; in data set [6], “Non-toxic”; in data set [7], “Non-toxic”; with SK-N-MC [8], 8%. The selectivity ratio in data set [3] amounted to 92.
`CNC(=S)N/N=C(\c1ccc(C)cc1)c1ccccn1`: the results for the IC50 in the data set with MRC5 and in the data set on SK-N-MC [1] were 2120 nM and 15 nM, respectively. Besides, the Activity result is “Non-toxic” in data set [4]; “Non-toxic” in data set [5]; “Toxic” in data set [6]; “Toxic” in data set [7]; 8% in the data set on SK-N-MC [8]. Moreover, the selectivity ratio in data set [3] amounted to 141.
Take `CC(C)(C)c1ccc(/C(=N\NC(N)=S)c2ccccn2)cc1`: the figures for the IC50 with MRC5 and with SK-N-MC [1] were 814 nM and 14 nM, respectively. For the same molecule, the Activity result in data set [4] was “Non-toxic”; in data set [5], “Non-toxic”; in data set [6], “Non-toxic”; in [7], “Non-toxic”; in data set [2] it was “Active”. Moreover, the selectivity ratio in data set [3] is 58.
For `Cc1ccc(/C(=N\NC(N)=S)c2ccccn2)cc1`, the IC50 with MRC5 is more than 12500 nM; in the data set with SK-N-MC [1] it was 146 nM. For the same molecule, the Activity entry in data set [4] is given as “Toxic”; in data set [5], “Toxic”; in data set [6], “Toxic”; in data set [7], “Toxic”; in [2], “Active”; with SK-N-MC [8], 8%. In addition, the selectivity ratio in data set [3] is more than 85.
Consider `COc1ccc(/C(=N\NC(N)=S)c2ccccn2)cc1`, for which the IC50 is more than 12500 nM in the data set on MRC5 and 3950 nM in the data set with SK-N-MC [1]. Moreover, the Activity result in data set [4] is given as “Toxic”; in data set [5], “Toxic”; in data set [6], “Non-toxic”; in data set [7] it was “Non-toxic”; in [2], “Active”; with SK-N-MC [8], 8%. For the same molecule, the selectivity ratio in data set [3] is more than 3.
As to `CNC(=S)N/N=C(\c1ccccc1)c1ccccn1`, the IC50 in the data set with SK-N-MC [1] is 20 nM. In addition, the Activity entry in data set [4], in data set [5], in data set [6] and in [7] was “Non-toxic” each time. Further, the selectivity ratio in data set [3] was found to be 116.
As to `CN(C)C(=S)NN=C(c1ccccn1)c1ccccn1`, the IC50 with SK-N-MC [1] turned out to be 7 nM. The “fold change (FC)” value was 45 in data set [4] and 2.3 in data set [10]. Further, the figures for the Activity (in data set [9]; in data set [2]; in the data set on SK-N-MC [8]) were 12%, “Active” and 4%, respectively.
With `S=C(N/N=C(\c1ccccc1)c1ccccn1)Nc1ccccc1`, the IC50 in the data set on MRC5 came to 571 nM; with SK-N-MC [1], 16 nM. The Activity result in data set [4], in data set [5], in data set [6] and in data set [7] was “Non-toxic” throughout. Besides, the selectivity ratio in data set [3] is 36.
As to `CCNC(=S)N/N=C(\c1ccccc1)c1ccccn1`, the values for the IC50 in the data set on MRC5 and in the data set on SK-N-MC [1] were 1490 nM and 14 nM, respectively. Besides, the Activity result in data set [4], in data set [5], in data set [6] and in data set [7] was “Non-toxic” throughout. Moreover, the selectivity ratio in data set [3] came to 106.
Take `CC(=O)N(O)CCCCCNC(=O)CCC(=O)N(O)CCCCCNC(=O)CCC(=O)N(O)CCCCCN` [DEFEROXAMINE]: the Activity in the data set on SK-N-MC [8] turned out to be 77%.
As to `NC(=S)N/N=C/c1ncccc1N` [TRIAPINE], the “fold change (FC)” value in data set [4] was determined as 38. Also, the results for the Activity (in data set [9]; in the data set on SK-N-MC [8]) were 17% and 54%, respectively.
